Here are results for 11 compounds from ChEMBL document CHEMBL1201862, “PubChem BioAssay data set” (2004).

Test systems include 786-0; A549; CAKI-1; EKVX; HCT-116; HOP-62; HOP-92; KM12; NCI-H522; OVCAR-3; OVCAR-8; SF-268; SF-295; SK-MEL-28; SN12C; SNB-19; SNB-75; SR; TK-10; RPMI-8226.
Holding throughout (test): NCI tumour cell line growth inhibition, 48 h

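96-well plates; 48 h exposure; 5 concentrations. Endpoints by linear interpolation between flanking doses. Not reached: highest tested concentration assigned. Here, GI50 denotes the concentration required for 50% inhibition of growth.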 Activity calls are given as the source filed them. Cut-off read from the data, not from the text of the source: active = GI50 up to about 1.1 µM and inactive = higher.

In the case of `O=S(=O)(Nc1ccccc1)c1ccc(-c2c3nc(c(-c4ccc(S(=O)(=O)Nc5ccccc5)cc4)c4ccc([nH]4)c(-c4ccc(S(=O)(=O)Nc5ccccc5)cc4)c4nc(c(-c5ccc(S(=O)(=O)Nc6ccccc6)cc5)c5ccc2[nH]5)C=C4)C=C3)cc1`, the GI50 is 18.9 µM (inactive) with 786-0; > 31.6 µM (inactive) in the experiment with A549; > 31.6 µM (inactive) in the experiment with CAKI-1; > 31.6 µM (inactive) in the experiment with EKVX; > 31.6 µM (inactive) in the experiment on HCT-116; > 10 µM (inactive) in the experiment on HOP-62. For the same compound, the GI50 was 12.8 µM (inactive) in the experiment with HOP-92; > 31.6 µM (inactive) with KM12; > 31.6 µM (inactive) in the experiment with NCI-H522; > 10 µM (inactive) with OVCAR-3; > 31.6 µM (inactive) in the experiment on OVCAR-8; > 31.6 µM (inactive) with SF-268. In addition, the GI50 is 22.9 µM (inactive) in the experiment with SF-295; > 10 µM (inactive) in the experiment with SK-MEL-28; > 31.6 µM (inactive) in the experiment with SN12C; 14.1 µM (inactive) in the experiment with SNB-19; 11.5 µM (inactive) with SNB-75; > 31.6 µM (inactive) with SR. The GI50 in the experiment on TK-10 was > 31.6 µM (inactive).
Regarding `COc1cc(-c2cc(-c3ccccc3)nc(-c3c(OC)ccc4c(C)cc(=O)oc34)c2)cc(OC)c1OC`, the GI50 in the experiment on 786-0, with A549, in the experiment with CAKI-1, with EKVX, in the experiment on HCT-116 and in the experiment with HOP-62 was > 100 µM (inactive) each time. For the same compound, the GI50 in the experiment on HOP-92, in the experiment with KM12, in the experiment on NCI-H522, in the experiment on OVCAR-3, in the experiment on OVCAR-8 and in the experiment on SF-268 was > 100 µM (inactive) throughout. Moreover, the GI50 with SF-295, in the experiment with SN12C, in the experiment with SNB-19, in the experiment with SNB-75, with SR and with TK-10 was > 100 µM (inactive) throughout.
On to `Nc1ccc(C2NC(=O)Cc3c2ccc2ccccc32)cc1` (configuration not stated), for which the GI50 with A549 was 33.2 µM (inactive); in the experiment on CAKI-1 it was 79.4 µM (inactive); in the experiment with EKVX, 84.7 µM (inactive); in the experiment on HCT-116, 81.1 µM (inactive); in the experiment on HOP-62, 56.2 µM (inactive); with HOP-92 it was > 100 µM (inactive). In addition, the GI50 was > 100 µM (inactive) in the experiment on KM12; > 100 µM (inactive) in the experiment on NCI-H522; 26.1 µM (inactive) in the experiment with OVCAR-3; 56.1 µM (inactive) with OVCAR-8; > 100 µM (inactive) in the experiment with RPMI-8226; 89.5 µM (inactive) with SF-268. Also, the GI50 was 45.5 µM (inactive) in the experiment on SF-295; > 100 µM (inactive) with SK-MEL-28; > 100 µM (inactive) in the experiment on SNB-19; > 100 µM (inactive) in the experiment on SNB-75; > 100 µM (inactive) in the experiment on SR; > 100 µM (inactive) in the experiment on TK-10.
Consider `O=C1CCCSC(=O)N1Cc1ccccc1`, for which the GI50 in the experiment on 786-0, with A549, in the experiment on CAKI-1, in the experiment with EKVX, with HCT-116 and in the experiment with HOP-62 was > 100 µM (inactive) each time. Besides, the GI50 in the experiment with HOP-92, in the experiment with KM12, in the experiment with NCI-H522, in the experiment on OVCAR-3, in the experiment on OVCAR-8 and in the experiment on SF-268 was > 100 µM (inactive) in each case. Besides, the GI50 was > 100 µM (inactive) with SF-295; > 100 µM (inactive) in the experiment with SK-MEL-28; > 100 µM (inactive) in the experiment on SN12C; > 100 µM (inactive) in the experiment on SNB-19; 0.0515 µM (active) with SNB-75; > 100 µM (inactive) with SR. Moreover, the GI50 with TK-10 is > 100 µM (inactive).
In the case of `O=C1CC2C(=O)N(Cc3ccccc3)C1C(S(=O)(=O)c1ccccc1)C2S(=O)(=O)c1ccccc1` (configuration not stated), the GI50 is 2.93 µM (inactive) in the experiment with 786-0; 19.1 µM (inactive) in the experiment on A549; 0.604 µM (active) in the experiment on CAKI-1; 4.68 µM (inactive) with HCT-116; 22.1 µM (inactive) in the experiment on HOP-62; 2.15 µM (inactive) with HOP-92. Moreover, the GI50 was 13.7 µM (inactive) with KM12; 0.363 µM (active) in the experiment with NCI-H522; 1.78 µM (inactive) with OVCAR-3; 1.94 µM (inactive) with OVCAR-8; 3.08 µM (inactive) with RPMI-8226; 3.44 µM (inactive) with SF-268. The GI50 in the experiment on SF-295 was 22.6 µM (inactive); in the experiment on SK-MEL-28, 1.9 µM (inactive); in the experiment with SN12C, 1.68 µM (inactive); with SNB-75, 7.28 µM (inactive); in the experiment on SR it was 2.48 µM (inactive); in the experiment with TK-10, 1.78 µM (inactive).
For the compound `CCC(CC)C(=O)OC[n+]1ccc(-c2c(COC(=O)NC(C)C)c(COC(=O)NC(C)C)c3n2CCC3)cc1`, the GI50 in the experiment with 786-0, in the experiment on A549, with CAKI-1, in the experiment with EKVX, in the experiment with HOP-62 and with HOP-92 was > 100 µM (inactive) each time. The GI50 in the experiment on NCI-H522, in the experiment on OVCAR-3, in the experiment on OVCAR-8, in the experiment with RPMI-8226, in the experiment on SF-295 and in the experiment with SN12C was > 100 µM (inactive) throughout. Further, the GI50 in the experiment with SNB-19 was > 100 µM (inactive); in the experiment on SR it was 36.7 µM (inactive).
Take `N#Cc1ccsc1Nc1ccccc1[N+](=O)[O-]`: the GI50 was > 100 µM (inactive) with 786-0; > 100 µM (inactive) with A549; > 100 µM (inactive) in the experiment with CAKI-1; 36.6 µM (inactive) with EKVX; > 100 µM (inactive) with HCT-116; 38.1 µM (inactive) in the experiment on HOP-62. For the same compound, the GI50 is 68.7 µM (inactive) with HOP-92; > 100 µM (inactive) with KM12; 63.7 µM (inactive) with NCI-H522; > 100 µM (inactive) in the experiment on OVCAR-3; > 100 µM (inactive) in the experiment on OVCAR-8; > 100 µM (inactive) in the experiment with RPMI-8226. The GI50 in the experiment on SF-268 was 47 µM (inactive); in the experiment with SF-295, 64.1 µM (inactive); in the experiment with SK-MEL-28 it was > 100 µM (inactive); in the experiment with SN12C it was > 100 µM (inactive); with SNB-19, 52.2 µM (inactive); in the experiment with SNB-75, > 100 µM (inactive). In addition, in the experiment on SR, the GI50 is > 100 µM (inactive).
Regarding `O=C1/C(=N\O)c2ccccc2S1(=O)=O`, the GI50 in the experiment on 786-0 was 61 µM (inactive); in the experiment on A549 it was > 100 µM (inactive); in the experiment with CAKI-1, 16.6 µM (inactive); with HCT-116 it was > 100 µM (inactive); in the experiment with HOP-62 it was > 100 µM (inactive); in the experiment on HOP-92, > 100 µM (inactive). Besides, the GI50 is > 100 µM (inactive) with KM12; 60 µM (inactive) with NCI-H522; > 100 µM (inactive) in the experiment with OVCAR-8; 64.3 µM (inactive) in the experiment on RPMI-8226; 80.9 µM (inactive) in the experiment on SF-268; > 100 µM (inactive) with SF-295. The GI50 in the experiment with SN12C is > 100 µM (inactive); in the experiment with SNB-19, > 100 µM (inactive); in the experiment on SNB-75 it was 66.2 µM (inactive); in the experiment with SR, 79.3 µM (inactive); in the experiment with TK-10, 61.5 µM (inactive).
Take `O=C(O)CSC(CC1(c2ccc(Cl)cc2)NC(=O)CS1)c1ccc(Cl)cc1` (configuration not stated): the GI50 with 786-0, in the experiment with A549, with CAKI-1, with EKVX, in the experiment with HCT-116 and in the experiment on HOP-62 was > 100 µM (inactive) throughout. Moreover, the GI50 is 22.8 µM (inactive) with HOP-92; > 100 µM (inactive) in the experiment with KM12; 46.2 µM (inactive) in the experiment on NCI-H522; 45.6 µM (inactive) in the experiment on OVCAR-3; > 100 µM (inactive) with OVCAR-8; > 100 µM (inactive) in the experiment on RPMI-8226. Also, the GI50 with SF-268, in the experiment on SF-295, in the experiment on SN12C, with SNB-19, in the experiment on SNB-75 and with SR was > 100 µM (inactive) throughout. In the experiment with TK-10, the GI50 was > 100 µM (inactive).
For `CCN(CC(=O)O)C(=O)c1cccnc1`, the GI50 in the experiment with 786-0, in the experiment on A549, with CAKI-1, with EKVX, in the experiment on HCT-116 and in the experiment with HOP-62 was > 100 µM (inactive) in each case. Moreover, the GI50 in the experiment on HOP-92, in the experiment on KM12, in the experiment on NCI-H522, with OVCAR-3, in the experiment on OVCAR-8 and in the experiment with SF-268 was > 100 µM (inactive) each time. Besides, the GI50 with SF-295, in the experiment on SK-MEL-28, with SN12C, with SNB-19, with SNB-75 and with SR was > 100 µM (inactive) in each case. Besides, the GI50 in the experiment on TK-10 is > 100 µM (inactive).
Consider `CC(=O)O[C@H]1C=CC(=O)C(C)CC1C` (some centres not stated), for which the GI50 in the experiment on A549 is > 100 µM (inactive); in the experiment with CAKI-1, > 100 µM (inactive); in the experiment on EKVX it was > 100 µM (inactive); with HCT-116, 44.8 µM (inactive); with HOP-62, > 100 µM (inactive); in the experiment on HOP-92 it was > 100 µM (inactive). The GI50 is > 100 µM (inactive) in the experiment on KM12; 37.9 µM (inactive) in the experiment with NCI-H522; > 100 µM (inactive) with OVCAR-3; > 100 µM (inactive) in the experiment with SF-268; > 100 µM (inactive) in the experiment on SF-295; > 100 µM (inactive) in the experiment on SK-MEL-28. The GI50 with SN12C, in the experiment with SNB-19, in the experiment with SNB-75, in the experiment on SR and with TK-10 was > 100 µM (inactive) throughout.
